Results on three compounds are retold here after patent US9040695B2, “Acid addition salts of risperidone and pharmaceutical compositions thereof” (TORRENT PHARMACEUTICALS LIMITED, priority 2011, dated 2015).

Data set [1] can be described thus: pK study in Wistar rats, aqueous suspensions by intramuscular route. In kind it is in vivo, male wistar rats. Conditions: single IM dose, 3.6 mg equivalent risperidone base, aqueous suspension, figure-3. As for the experimental part: A comparative evaluation of pharmacokinetic profile of Risperidone, Rispridone pamoate and Risperidone hemipamoate was carried out in male wistar rats. Aqueous suspension formulations of Risperidone base, Pamoate and hemipamoate salt containing 3.6 mg equivalent risperidone base were administered through intramuscular route. Each group (N=5) was administered a single dose. Blood samples were withdrawn at predefined time interval for measurement of Risperidone and 9-hydroxyrisperidone.

Data set [2] can be described thus: Intrinsic dissolution rate (disc method, HPLC analysis). In kind it is physicochemical. The following applies: phosphate buffer saline, 37° C., 200 rpm; for Intrinsic dissolution rate: 50 mg disc, drug equivalent to risperidone dissolved per unit area per unit time. As for the experimental part: The risperidone hemipamoate of example-1 has intrinsic dissolution rates much less than that compared to risperidone alone as disclosed herein below. The intrinsic dissolution rates were determined by preparing discs of sample (50 mg) and performing dissolution by mounting the sample on shaft of dissolution apparatus with help of disc adaptor. The dissolution was performed in phosphate buffer saline, at 37° C. and rotation of 200 rpm. Samples were withdrawn at regular interval and analyzed by high performance liquid chromatography. The intrinsic dissolution rate was calculated as amount of drug (equivalent to risperidone) dissolved per unit area per unit time.

For data set [3] the following is noted: poorly soluble salt suspended in aqueous vehicle, dogs; cited from earlier work.

Regarding `Cc1nc2n(c(=O)c1CCN1CCC(c3noc4cc(F)ccc34)CC1)CCCC2.Cc1nc2n(c(=O)c1CCN1CCC(c3noc4cc(F)ccc34)CC1)CCCC2.O=C(O)c1cc2ccccc2c(Cc2c(O)c(C(=O)O)cc3ccccc23)c1O` [Risperidone hemipamoate], in data set [1], the “Absorption after IM administration” value is on record as “absorbed rapidly”, the “Exposure duration compared to risperidone pamoate” value was “remains sustained for longer duration” and the Plasma level course result is recorded as “sustains for long duration comparatively”. For the same compound, in data set [2], the “Intrinsic dissolution rate compared to risperidone alone” value is “much less” and the Intrinsic dissolution rate was found to be 0.49 mg/cm^2/h.

As to `Cc1nc2n(c(=O)c1CCN1CCC(c3noc4cc(F)ccc34)CC1)CCCC2` [Risperidone pamoate, reference compound], in data set [1], the “Absorption after IM administration” value is given as “absorbed rapidly” and the Plasma level course result is “falls quickly”. In addition, in data set [3], the Period of effectiveness entry is “over 2 week”.

Take `Cc1nc2n(c(=O)c1CCN1CCC(c3noc4cc(F)ccc34)CC1)CCCC2` [Risperidone, 3-[2-[4-(6-fluoro-1,2-benzisoxazol-3-yl)-1-piperidinyl]ethyl]-6,7,8,9-tetrahydro-2-methyl-4H-pyrido[1,2-a]pyrimidin-4-one]: in data set [2], the Intrinsic dissolution rate is recorded as 1.89 mg/cm^2/h.
